PMC10570359, “Dietary supplementation of cystinotic mice by lysine inhibits the megalin pathway and decreases kidney cystine content” (Scientific Reports, 2023)

Experiments:
[1] = test system: kidney proximal tubular cells; test: In vivo endocytic tracing with TexasRed-ovalbumin in WT mice; conditions: 3 weeks diet
Description: We also examined whether apical endocytic trafficking of megalin cargo could be blocked under 5x-L-lysine, using apical endocytic tracing in WT mice with the fluorescent megalin ligand, TexasRed-ovalbumin (TxR-OVA). Normally, mice feed at night hours. To optimize PT exposure to ingested lysine during endocytic tracing performed at day hours, mice were first reprogrammed by adaptation to inverted […]. […] This implied that the extent of competition in cortical PTCs could be greatly underestimated by measured LMWPuria. At higher magnification, contacts of TxR-OVA labeled apical endosomes with lysosomes in cortical PTCs were still visible under 5X-L-Lysine, arguing against a major impairment of apical endosomal trafficking (Fig. 4b). […]
(§1) For in vivo endocytic tracing in PTCs, Texas Red-ovalbumin (300 µg, Invitrogen #O23021) was injected intravenously at 20 min before sacrifice. […] Proliferative events in kidney cortex were quantified as described. […] Histological PAS staining and quantification of the frequency of swan-neck lesions were performed as described. Sirius Red staining of paraffine sections and morphometry in total sagittal kidney sections after conversion to red fluorescence were performed as described[53],[54].

Ctns KO mice kidneys = test: Kidney histology (swan-neck lesions, Sirius-red fibrosis) in Ctns KO mice; type: in vivo; conditions: primary prevention, diet from 2-to-6 months-of-age, control diet ~ 80%
Text: By histological survey, no obvious change was evidenced after HE or PAS staining (Supplemental Fig. 4a). We thus scored the abundance of characteristic swan-neck lesions at the glomerulo-tubular junction, a quantitative marker disease, and again found no detectable protection (Supplemental Fig. 4b). However, at 6-months-of-age as baseline, most junctions were already altered (~ 80%), leaving little scope for a potential benefit. […] To look for fibrosis, histological sections at 8 months-of-age were stained with Sirius-red; its signal was automatically divided into three intensity levels over the entire kidney cortex. This quantification disclosed no detectable decrease of Sirius-red staining, thus fibrosis, upon dAAs at this interval (Supplemental Fig. 4c,d).
as §1, with “described[53],[54]. […]” for “described[53],[54].”
Fo r the significance of swan-necks, please see [26]. Fo r more information on swan-neck quantification, see [22]. […]

[2] = Tolerance of prolonged 5x-dAA diets in mice; conditions: ad libitum 5x-supplemented solid diet, approx. 45 mmoles/kg/day
Description: Ctns knockout mice (C57BL/6 background) were kindly provided by Dr. Corinne Antignac[18]. […] The same increase was set for L- (and D-) lysine.

[3] = test system: kidney proximal tubular cells; conditions: Ctns KO mice kidneys at 8 months of age
Description: At cellular level, we assessed PT cell death linked to compensatory renewal, by measuring Ki-67 immunolabelling abundance, a validated proliferation index (Fig. 6a)[22].
(a) Proliferative events in PTCs were identified by Ki-67 immunolabelling in confocal images and scored over random fields to cumulative areas of 0.96 mm^2.
For immunofluorescence, antigen retrieval was promoted in citrate buffer, pH 6, at 95 °C for 20 min using a Lab Vision Pretreatment Module™ (Thermo Scientific). Tissue was permeabilized with PBS/0.3% Triton-X100 for 5 min, then for one further hour with 10% bovine serum albumin (BSA)/3% milk to block non-specific sites. […] After washing, sections were further incubated with the appropriate AlexaFluor-secondary antibodies for 1 h at room temperature in 10% BSA/0.3% Triton-X100 and mounted with Faramount aqueous mounting medium (Dako). Sections were imaged on a spinning disk confocal microscope using EC Plan-NeoFluar 40X/1.3 or 100x/1.4 Oil DIC objective (Cell Observer Spinning Disk; Zeiss). Proliferative events in kidney cortex were quantified as described[22].

megalin pathway = conditions: mouse, in vivo
Description: After 24-h adaptation in metabolic cages, urine was collected during the following 24 h in presence of 0.1% sodium azide and 1x-protease inhibitors (Thermo Scientific). When in metabolic cages, mice had free access to tap water and food. Blood was collected 2 days before starting the treatments and entry into metabolic cages (baseline) and at the sacrifice to obtain serum. Body weight was recorded before entering the metabolic cages. Urine and serum analyses were performed by the veterinary laboratory Appialab Srl (Rome, Italy). Urinary levels of CC16 were measured by the Mouse Clara Cell Protein 16 kit 96 T #EKU03200 (Biomatik) according to manufacturer’s instructions. Serum levels of cystatin-C were measured by the Mouse/Rat Cystatin C Quantitative ELISA #MSCTC0 (R&D Systems). […] Creatinine clearance was normalized by mouse body weight.

Compound	distribution of endocytic load from S1/S2 (cortex) to S3 segment (outer medulla) ([1]; inverted light cycle)	TxR-OVA fluorescence intensity in cortical PTCs ([1]; inverted light cycle (reprogrammed feeding hours), 20 min after injection)	swan-neck frequency at 6 months-of-age (Ctns KO mice kidneys)	tolerance of prolonged diet [2]	Ki-67 proliferation index in PTCs [3]	Urine microalbumin/creatinine (megalin pathway)	increase of microalbuminuria vs control diet (megalin pathway)
NCCCC[C@H](N)C(=O)O [5x-L-lysine, L-lysine]	strong redistribution	greatly decreased	~ 20%	well tolerated	undistinguishable		
N=C(N)NCCC[C@H](N)C(=O)O [5x-L-arginine, L-arginine]						0.2 ± 0.0 mg/g	no detectable increase
